ChEMBL document CHEMBL1156514, “Chemical genetics define the roles of p38alpha and p38beta in acute and chronic inflammation” (J Biol Chem, 2007)
pIC50: −log10 of the molar value. Active and inactive are the calls of the source. The rule behind the calls is not given here.

Tests used:
[1] = Inhibition of LPS-stimulated TNFalpha production in p38alpha T106M mutant expressing mouse peritoneal exudates cells by ELISA; format: functional
Mus musculus [2] = experiment: Inhibition of collagen antibody-induced arthritis in wild type C57BL/6 mouse at 3 mg/kg, po administered daily once 24 hrs after LPS challenge; format: functional, organism-based; design: dose 3 mg/kg
[3] = molecular target: Mitogen-activated protein kinase 14 (Homo sapiens, UniProt Q16539); experiment: Inhibition of wild type p38alpha
Sequence of Mitogen-activated protein kinase 14 (Homo sapiens, UniProt Q16539) (Q16539 whole entry): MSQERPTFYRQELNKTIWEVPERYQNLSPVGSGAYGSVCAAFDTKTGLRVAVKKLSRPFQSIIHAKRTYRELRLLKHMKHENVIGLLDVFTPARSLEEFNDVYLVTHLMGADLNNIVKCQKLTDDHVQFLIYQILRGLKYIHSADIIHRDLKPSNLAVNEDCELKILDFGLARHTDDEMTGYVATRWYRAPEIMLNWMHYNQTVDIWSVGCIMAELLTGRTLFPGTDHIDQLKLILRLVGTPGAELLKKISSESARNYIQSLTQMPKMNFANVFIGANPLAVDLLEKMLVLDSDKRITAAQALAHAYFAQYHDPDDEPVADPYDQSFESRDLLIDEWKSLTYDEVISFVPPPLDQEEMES

[4] = Inhibition of LPS-stimulated TNFalpha production in p38beta deficient mouse peritoneal exudates cells by ELISA; format: functional
[5] = Inhibition of LPS-stimulated TNFalpha production in p38beta T106M mutant expressing mouse peritoneal exudates cells by ELISA; format: functional
Mus musculus [6] = experiment: Inhibition of collagen antibody-induced arthritis in p38beta T106M mutant expressing C57BL/6 mouse at 3 mg/kg, po administered daily once 24 hrs after LPS challenge; format: functional, organism-based; design: dose 3 mg/kg
Mus musculus [7] = experiment: Inhibition of collagen antibody-induced arthritis in p38alpha T106M mutant expressing C57BL/6 mouse at 3 mg/kg, po administered daily once 24 hrs after LPS challenge; format: functional, organism-based; design: dose 3 mg/kg
[8] = molecular target: Mitogen-activated protein kinase 14 (Homo sapiens, UniProt Q16539, T106M); experiment: Inhibition of p38alpha T106M mutant
Sequence of Mitogen-activated protein kinase 14 (Homo sapiens, UniProt Q16539, T106M) (Q16539 2-360 T106M limits assumed): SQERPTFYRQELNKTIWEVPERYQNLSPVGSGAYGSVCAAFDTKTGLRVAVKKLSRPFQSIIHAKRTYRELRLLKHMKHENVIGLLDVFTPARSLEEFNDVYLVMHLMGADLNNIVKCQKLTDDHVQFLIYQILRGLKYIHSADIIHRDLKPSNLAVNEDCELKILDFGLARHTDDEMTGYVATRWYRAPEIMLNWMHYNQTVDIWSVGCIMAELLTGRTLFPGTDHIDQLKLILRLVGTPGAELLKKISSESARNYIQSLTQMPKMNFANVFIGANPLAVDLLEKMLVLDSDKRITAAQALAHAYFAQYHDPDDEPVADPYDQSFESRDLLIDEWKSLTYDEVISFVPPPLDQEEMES

[9] = Inhibition of LPS-stimulated TNFalpha production in p38alpha expressing mouse peritoneal exudates cells by ELISA; format: functional
[10] = molecular target: Mitogen-activated protein kinase 11 (Homo sapiens, UniProt Q15759); experiment: Inhibition of wild type p38beta
Sequence of Mitogen-activated protein kinase 11 (Homo sapiens, UniProt Q15759) (Q15759 whole entry): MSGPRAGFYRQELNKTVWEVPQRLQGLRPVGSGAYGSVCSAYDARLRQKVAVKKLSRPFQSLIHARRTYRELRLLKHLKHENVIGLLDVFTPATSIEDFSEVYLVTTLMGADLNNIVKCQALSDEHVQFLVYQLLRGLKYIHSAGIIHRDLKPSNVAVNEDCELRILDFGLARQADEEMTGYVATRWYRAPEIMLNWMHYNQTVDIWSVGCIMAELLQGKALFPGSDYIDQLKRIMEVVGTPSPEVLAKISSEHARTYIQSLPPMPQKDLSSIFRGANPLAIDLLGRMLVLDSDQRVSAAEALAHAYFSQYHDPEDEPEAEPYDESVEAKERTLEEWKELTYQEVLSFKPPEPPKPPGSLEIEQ

[11] = molecular target: Mitogen-activated protein kinase 11 (Homo sapiens, UniProt Q15759, T106M); experiment: Inhibition of p38beta T106M mutant
Sequence of Mitogen-activated protein kinase 11 (Homo sapiens, UniProt Q15759, T106M) (Q15759 whole entry T106M): as the sequence (Q15759 whole entry) above, with T106M counted along it

Mus musculus [12] = experiment: Inhibition of LPS-stimulated TNFalpha production in p38beta deficient C57BL/6 mouse plasma at 3 mg/kg, po after 90 mins by ELISA; format: functional, organism-based; design: dose 3 mg/kg
Mus musculus [13] = experiment: Inhibition of LPS-stimulated TNFalpha production in p38alpha T106M mutant expressing C57BL/6 mouse plasma at 3 mg/kg, po after 90 mins by ELISA; format: functional, organism-based; design: dose 3 mg/kg
Mus musculus [14] = experiment: Inhibition of LPS-stimulated TNFalpha production in wild type C57BL/6 mouse plasma at 3 mg/kg, po after 90 mins by ELISA; format: functional, organism-based; design: dose 3 mg/kg
Mus musculus [15] = experiment: Inhibition of LPS-stimulated TNFalpha production in p38beta T106M mutant expressing C57BL/6 mouse plasma at 3 mg/kg, po after 90 mins by ELISA; format: functional, organism-based; design: dose 3 mg/kg

CC(C)(C)N1CCC(c2cc(-c3ccc(F)cc3F)c3ccc(=O)n(-c4c(Cl)cccc4Cl)c3c2)CC1
pIC50 [1]: < 6.60 | Activity (Mus musculus [2]): Active | pIC50 [3]: 10.10 | pIC50 [4]: 8.17 | pIC50 [5]: 8.08 | Activity (Mus musculus [6]): Active | Activity (Mus musculus [7]): inactive | pIC50 [8]: 7.55 | pIC50 [9]: 8.46 | pIC50 [10]: 9.60 | pIC50 [11]: 6.59

C[C@H](Nc1cc(-c2c(-c3cccc(C(F)(F)F)c3)nc(C3CCNCC3)n2C)ccn1)c1ccccc1
Activity (Mus musculus [12]): Active | Activity (Mus musculus [13]): inactive | Activity (Mus musculus [14]): Active | Activity (Mus musculus [15]): Active
